In patent US20150152469A1, “FLUORESCENT PROBE FOR HIGH-SENSITIVITY PANCREATIC FLUID DETECTION, AND METHOD FOR DETECTING PANCREATIC FLUID” (THE UNIVERSITY OF TOKYO, priority 2012, published 2015):

Experiments:
[1] = system: chymotrypsin; assay: Fluorescence response to drain samples of pancreatic fluid, ascitic fluids and intestinal fluids (gPhe-HMRG, gPhe-HMRG-Try); type: biochemical, human
Protocol: (§1) Furthermore, response behaviors of the fluorescent probes against body fluids other than pancreatic fluid were compared by using drain samples which were collected from patients who received resectional surgeries of the pancreas. With respect to a total of 76 samples of pancreatic fluid, ascitic fluids and intestinal fluids which were collected from 18 patients, changes in fluorescent intensities were measured for gGlu-HMRG, gPhe-HMRG, and trypsin-added gPhe-HMRG (gPhe-HMRG-Try).
(§2) 180 μL of a probe solution (1.1 μM) was poured into each well of a 96-well microplate reader (SH-8000, Hitachi), and then, 20 μL of a collected sample was added thereto, followed by mixing them. The sample was incubated at 37° C., and fluorescence responses were measured after 5 minutes, 15 minutes and 30 minutes. Trypsin was added to gPhe-HMRG-Try at a final concentration of 0.525 μBTEE/μL. For an excitation wavelength and a fluorescence wavelength for the fluorescence measurement device, 490 nm and 520 nm, respectively, were used. The obtained results of fluorescence responses are shown as average values of respective samples in FIG. 5.

[2] = Fluorescent imaging of human pancreatic fluid; conditions: for visualization of adhesion points of the pancreatic fluids: 50 μM probe solution sprayed on paper (gPhe-HMRG with trypsin), after several minutes from spraying
Protocol: Fluorescent imaging of pancreatic fluids on an excised surface of the pancreas was carried out by using gPhe-HMRG and gGlu-HMRG as fluorescent probes. In consideration of, for example, cases where materials retaining pancreatic fluids, which are measurement subjects, are used during surgeries, wiping towels and filter paper for experiments (those having low background fluorescence from paper itself), which had been used in clinical practice, were used as the materials. For specific procedures, apiece of the pancreas immediately after being excised by surgical operations was collected, the wiping towel and filter paper was adhered to its excised surface, thereby adhering the pancreatic fluid thereto. Then, probe solutions of gPhe-HMRG (including trypsin) and gGlu-HMRG were sprayed to the adhered paper to start imaging. For the probe solutions, 10 μL of a DMSO solution (10 mM) of each probe was dissolved in 2 mL of RPMI 1640 medium (GINBO 11835) at a final concentration of 50 μM, and, for gPhe-HMRG, a solution obtained by adding trypsin (52.6 BTEE units) thereto was used. For an excitation filter and a fluorescence filter, long path filters of 435-480 nm and 490 nm, respectively, were used.

[3] = molecular target: T1, chymotrypsin (a-chymotrypsin derived from bovine pancreas) (Bos taurus, UniProt P00766); assay: Fluorescence assay using chymotrypsin; type: biochemical; conditions: 2.4 μM probe, 4.6 U chymotrypsin
T1 construct: a-chymotrypsin derived from bovine pancreas; purchased SIGMA C4129-250MG; host or cells: bovine pancreas
Protocol: 3 μL of a 2.4 mM gPhe-HMRC dimethylsulfoxide (DMSO) solution was dissolved in 3 mL of 0.1 M sodium phosphate buffer (pH 7.4) at a final concentration of 2.4 μM, 4.6 U of chymotrypsin (a-chymotrypsin derived from bovine pancreas: SIGMA C4129-250MG) was added thereto to conduct an enzymatic reaction at 37° C. The excitation wavelength was set to 501 nm.

[4] = system: chymotrypsin activities in pancreatic fluid; assay: In vitro fluorescence assay using human pancreatic fluid (gPhe-HMRG); type: biochemical
Protocol: (§3) gPhe-HMRG synthesized in Example 1 and gGlu-HMRG, which has a glutamic acid residue, synthesized in Example 2 were used as fluorescent probes to evaluate enzymatic activities of pancreatic fluid obtained from patients of pancreatic cancer or bile duct cancer. 1 μL of a fluorescent probe DMSO solution (1 mM) was dissolved in 180 μL of a 0.1 M sodium phosphate buffer (pH 7.4) at a final concentration of […], 20 μL of a pancreatic fluid was added thereto, and an enzymatic reaction was carried out at 37° C. for 30 minutes. In the case of gPhe-HMRG, a probe solution to which 57 BAEE units of trypsin (bovine pancreas-derived trypsin: SIGMA T1426-100MG) had been added was used to carry out the same enzymatic reaction. In addition, as to inhibitor treatments for comparisons, 1 μL of an aqueous solution (10 mM) of a γ-glutamyltransferase inhibitor (GGs-Top: Wako Pure Chemical 075-05471) in the case of gGlu-HMRG, and 1 μL of a DMSO solution (10 mM) of a chymotrypsin inhibitor (chymostatin: SIGMA C7268) in the case of gPhe-HMRG were each added to probe solutions. For excitation wavelengths and fluorescence wavelengths of a fluorescence measurement device, 478-492 nm and 523-548 nm, respectively, were used.

[5] = molecular target: T2, γ-glutamyltransferase activity in a pancreatic fluid (Homo sapiens, UniProt P19440); assay: In vitro fluorescence assay using human pancreatic fluid (gGlu-HMRG); type: biochemical; conditions: 0.9 μM probe, 37° C., 30 minutes
T2 construct: pancreatic fluid obtained from patients of pancreatic cancer or bile duct cancer; from tissue; host or cells: pancreatic fluid from patients with pancreatic cancer or bile duct cancer
T2 sequence (P19440 1-380 limits assumed): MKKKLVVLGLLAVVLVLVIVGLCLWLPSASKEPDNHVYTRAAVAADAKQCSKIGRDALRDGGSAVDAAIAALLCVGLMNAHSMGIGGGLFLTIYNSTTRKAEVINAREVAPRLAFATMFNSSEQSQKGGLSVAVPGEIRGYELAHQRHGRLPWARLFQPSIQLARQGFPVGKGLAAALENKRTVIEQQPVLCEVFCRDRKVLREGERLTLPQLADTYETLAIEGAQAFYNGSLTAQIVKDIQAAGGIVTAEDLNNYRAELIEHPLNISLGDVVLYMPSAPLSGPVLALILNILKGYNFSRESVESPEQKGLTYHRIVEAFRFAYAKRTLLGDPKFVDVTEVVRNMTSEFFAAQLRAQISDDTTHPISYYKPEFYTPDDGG
T2 sequence (P19440 381-569 limits assumed): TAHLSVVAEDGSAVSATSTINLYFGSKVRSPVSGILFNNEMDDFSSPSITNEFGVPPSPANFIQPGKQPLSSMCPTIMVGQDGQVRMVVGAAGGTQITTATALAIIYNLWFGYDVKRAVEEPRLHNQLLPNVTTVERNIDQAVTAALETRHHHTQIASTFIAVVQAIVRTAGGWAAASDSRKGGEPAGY
Protocol: as §3

[6] = system: γ-glutamyltransferase; assay: Fluorescence response to drain samples of pancreatic fluid, ascitic fluids and intestinal fluids (gGlu-HMRG); type: biochemical, human; conditions: drain samples from patients, 37° C., 5, 15, 30 minutes
Protocol: as §1, §2

| Substance | fluorescent response to body fluids, trypsin not added ([1]; pancreatic fluid, ascitic fluids, intestinal fluids from patients, 37° C., 5, 15, 30 minutes) | fluorescence response compared with gGlu-HMRG ([1]; trypsin added) | visualization of adhesion points of the pancreatic fluids [2] | fluorescence response at adhesion points of body fluids other than the pancreatic fluid ([2]; 50 μM probe with trypsin sprayed on paper) | change in absorption by chymotrypsin addition ([3]; 0.1 M sodium phosphate buffer pH 7.4, 37° C.) | change in fluorescent intensity by chymotrypsin addition ([3]; pH 7.4, 37° C., excitation 501 nm) | time until fluorescent intensity reached saturation after chymotrypsin addition ([3]; fluorescence at 524 nm, 37° C.) | change in fluorescent intensity by addition of pancreatic fluid sample, trypsin included ([4]; 0.9 μM probe, 57 BAEE units trypsin, pancreatic fluid samples No. 1 to No. 5, 37° C., 30 minutes) | fluorescence response against chymotrypsinogen (precursor) ([4]; pancreatic fluid without trypsin addition) | fluorescent intensity when chymostatin (chymotrypsin inhibitor) was added ([4]; pancreatic fluid, trypsin, chymostatin added, 37° C., 30 minutes) | change in fluorescent intensity by addition of pancreatic fluid sample ([5]; 20 μL pancreatic fluid (samples No. 1 to No. 5), no inhibitor) | fluorescent intensity when γ-glutamyltransferase-specific inhibitor (GGs-Top) was added ([5]; pancreatic fluid, inhibitor added) | fluorescent response to ascitic fluids [6] | fluorescent response to pancreatic fluids [6] | fluorescent response to intestinal fluids ([6]; compared with pancreatic fluids) |
| --- | --- | --- | --- | --- | --- | --- | --- | --- | --- | --- | --- | --- | --- | --- | --- |
| glutamyl-phenylalanine hydroxymethyl rhodamine green [gPhe-HMRG] | significant fluorescent responses were not observed for all the body fluids | superior | successfully accomplished | any fluorescence response was not observed | significant increases | significant increases | about 600 seconds | remarkable increases in fluorescent intensities were observed in all the pancreatic fluid samples | hardly showed a fluorescence response | significantly decreased | – | – | – | – | – |
| γ-glutamyl hydroxymethyl rhodamine green [gGlu-HMRG] | – | – | successfully accomplished | – | – | – | – | – | – | – | increases in fluorescent intensities were observed in all pancreatic fluid samples | significantly decreased | increases in fluorescent intensities were observed | an increase in fluorescent intensities was observed | a larger increase in fluorescent intensities was observed for intestinal fluids, than for the case of pancreatic fluids |
